We go through 27 molecules from ChEMBL document CHEMBL3758085, “Synthesis and cytotoxicity of thieno[2,3-b]quinoline-2-carboxamide and cycloalkyl[b]thieno[3,2-e]pyridine-2-carboxamide derivatives” (Bioorg Med Chem, 2016).

Active and inactive are the calls of the source. The rule behind the calls is not given here.

The term IC50 denotes the concentration that gives 50% inhibition.

Assay [1] can be described thus: Antiproliferative activity against human HCT116 cells assessed as cell growth at 1 uM incubated for 3 days by 3H-thymidine incorporation assay relative to control. The class given is functional. Particulars: HCT-116, read-out: Activity.
For assay [2], the system named is MDA-MB-468. Briefly: Antiproliferative activity against human MDA-MB-468 cells assessed as cell growth at 1 uM incubated for 3 days by 3H-thymidine incorporation assay relative to control. Particulars: read-out: Activity. It counts as functional.
Assay [3] has as its system MDA-MB-231. Briefly: Antiproliferative activity against human MDA-MB-231 cells assessed as cell growth at 1 uM incubated for 3 days by 3H-thymidine incorporation assay relative to control. It counts as functional. The following applies: read-out: Activity.
Assay [4] in a line: Antiproliferative activity against human HCT116 cells assessed as cell growth incubated for 3 days by 3H-thymidine incorporation assay relative to control. It counts as functional, cell-based. Particulars: HCT-116.
Assay [5] deals with MDA-MB-468. Briefly: Antiproliferative activity against human MDA-MB-468 cells assessed as cell growth incubated for 3 days by 3H-thymidine incorporation assay relative to control. It counts as functional, cell-based.
For assay [6], the system named is MDA-MB-231. In words: Antiproliferative activity against human MDA-MB-231 cells assessed as cell growth incubated for 3 days by 3H-thymidine incorporation assay relative to control. The class given is functional, cell-based.
The test system of the next assay is K562. In words: Antiproliferative activity against human K562 cells assessed as cell growth incubated for 3 days by 3H-thymidine incorporation assay relative to control. It counts as functional, cell-based. On the technique in general: Incorporation of labelled thymidine or its analogues reports DNA synthesis.
For the next assay, the system named is Escherichia coli. Briefly: Antibacterial activity against Escherichia coli DH5[alpha] at 1 to 10 mg/ml incubated overnight by agar diffusion method. The class given is functional, organism-based. In general terms: Agar diffusion results depend on both activity and mobility in agar.
Another assay has as its system Pseudomonas aeruginosa. In words: Antibacterial activity against Pseudomonas aeruginosa at 1 to 10 mg/ml incubated overnight by agar diffusion method. It counts as functional, organism-based.
For the next assay, the system named is Staphylococcus aureus. In words: Antibacterial activity against Staphylococcus aureus at 1 to 10 mg/ml incubated overnight by agar diffusion method. The class given is functional, organism-based.

Regarding `Cc1c(Br)cccc1NC(=O)c1sc2nc3c(cc2c1N)CCCC3`, the results for the growth at 1 µM (in [1]; in the assay on MDA-MB-468 [2]; with MDA-MB-231 [3]) were 5%, 3% and 5%, respectively. For the same molecule, the IC50 in [4] was 207 nM; in the assay with MDA-MB-468 [5], 185 nM; in the assay with MDA-MB-231 [6] it was 233 nM; in the assay with K562, 185 nM.
In the case of `Cc1c(Cl)cccc1NC(=O)c1sc2nc3c(cc2c1N)CCC3`, the growth at 1 µM in assay [1] turned out to be 3%; with MDA-MB-468 [2], 4%; with MDA-MB-231 [3], 11%. Moreover, the IC50 in assay [4] was found to be 218 nM; in the assay on MDA-MB-468 [5], 546 nM; with MDA-MB-231 [6], 593 nM; in the assay on K562 it was 197 nM.
Regarding `Nc1c(C(=O)Nc2ccccc2F)sc2nc3c(cc12)CCCCC3`, the growth at 1 µM in assay [1] stood at 15%; in the assay on MDA-MB-468 [2], 11%; in the assay with MDA-MB-231 [3], 46%. Besides, the half-maximal inhibitory concentration (IC50) is 798 nM in assay [4], 528 nM with MDA-MB-468 [5], 672 nM in the assay on MDA-MB-231 [6] and 575 nM in the assay on K562.
As for `Nc1c(C(=O)Nc2cccc(Cl)c2)sc2nc3c(cc12)CCCC3`, the growth at 1 µM in assay [1] was found to be 80%; with MDA-MB-468 [2], 58%; in the assay on MDA-MB-231 [3], 98%. Besides, the outcome in the assay with Escherichia coli, with Pseudomonas aeruginosa and in the assay on Staphylococcus aureus was inactive.
`Cc1cccc(NC(=O)c2sc3nc4c(cc3c2N)CCCC4)c1C`: the growth at 1 µM in assay [1] worked out at 5%; in the assay on MDA-MB-468 [2] it was 3%; in the assay on MDA-MB-231 [3], 4%. Moreover, the half-maximal inhibitory concentration (IC50) in [4] worked out at 199 nM; in the assay with MDA-MB-468 [5], 148 nM; in the assay on MDA-MB-231 [6], 204 nM; in the assay with K562, 152 nM.
As to `Nc1c(C(=O)Nc2cccc(F)c2)sc2nc3c(cc12)CCCC3`, the growth at 1 µM in [1] is 11%; in the assay with MDA-MB-468 [2], 11%; with MDA-MB-231 [3] it was 30%. The half-maximal inhibitory concentration (IC50) in assay [4] is 563 nM; in the assay with MDA-MB-468 [5], 398 nM; with MDA-MB-231 [6], 632 nM; in the assay with K562, 554 nM.
For `Nc1c(C(=O)Nc2ccccc2)sc2nc3c(cc12)CCCC3`, the results for the growth at 1 µM (in [1]; in the assay on MDA-MB-468 [2]; with MDA-MB-231 [3]) were 5%, 8% and 22%, respectively. Further, the half-maximal inhibitory concentration (IC50) in assay [4] was 594 nM; in the assay on MDA-MB-468 [5] it was 407 nM; with MDA-MB-231 [6] it was 617 nM; in the assay with K562, 526 nM.
In the case of `Nc1c(C(=O)Nc2ccccc2Cl)sc2nc3c(cc12)CCCC3`, the growth at 1 µM in assay [1] turned out to be 94%; in the assay with MDA-MB-468 [2] it was 95%; in the assay with MDA-MB-231 [3], 119%. Further, the result in the assay with Escherichia coli, with Pseudomonas aeruginosa and with Staphylococcus aureus was inactive.
On to `COc1cccc(NC(=O)c2sc3nc4c(cc3c2N)CCCCC4)c1`, for which the growth at 1 µM in assay [1] was determined as 6%; in the assay with MDA-MB-468 [2], 3%; with MDA-MB-231 [3], 19%. In addition, the IC50 in assay [4] came to 601 nM; in the assay on MDA-MB-468 [5], 391 nM; in the assay on MDA-MB-231 [6] it was 524 nM; with K562 it was 580 nM.
For `Cc1c(Br)cccc1NC(=O)c1sc2nc3c(cc2c1N)CCC3`, the growth at 1 µM in assay [1] was determined as 5%; in the assay with MDA-MB-468 [2] it was 5%; in the assay with MDA-MB-231 [3] it was 16%. The IC50 is 161 nM in assay [4], 79 nM in the assay with MDA-MB-468 [5], 84 nM in the assay with MDA-MB-231 [6] and 83 nM with K562.
As for `Nc1c(C(=O)Nc2ccccc2)sc2nc3c(cc12)CCCCC3`, the growth at 1 µM in [1] was 6%; in the assay on MDA-MB-468 [2] it was 5%; in the assay on MDA-MB-231 [3], 26%. Further, the half-inhibitory concentration (IC50) amounted to 606 nM in [4], 383 nM with MDA-MB-468 [5], 508 nM with MDA-MB-231 [6] and 570 nM in the assay on K562.
Consider `Cc1cccc(NC(=O)c2sc3nc4c(cc3c2N)CCCCC4)c1C`, for which the growth at 1 µM is 6% in [1], 4% in the assay on MDA-MB-468 [2] and 6% in the assay on MDA-MB-231 [3]. Further, the 50% inhibitory concentration (IC50) in [4] stood at 204 nM; in the assay with MDA-MB-468 [5], 121 nM; in the assay with MDA-MB-231 [6], 198 nM; in the assay on K562, 167 nM.
On to `Nc1c(C(=O)Nc2cccc(F)c2)sc2nc3c(cc12)CCCCC3`, for which the growth at 1 µM is 29% in [1], 10% with MDA-MB-468 [2] and 28% in the assay with MDA-MB-231 [3]. Also, the IC50 in assay [4] was 543 nM; in the assay on MDA-MB-468 [5], 351 nM; with MDA-MB-231 [6] it was 448 nM; in the assay on K562, 558 nM.
As to `COc1cccc(NC(=O)c2sc3nc4c(cc3c2N)CCC4)c1`, the growth at 1 µM is 92% in assay [1], 63% in the assay on MDA-MB-468 [2] and 95% in the assay with MDA-MB-231 [3]. For the same molecule, the outcome in the assay with Escherichia coli, in the assay with Pseudomonas aeruginosa and with Staphylococcus aureus was inactive.
With `Nc1c(C(=O)Nc2cccc3ccccc23)sc2nc3c(cc12)CCCC3`, the growth at 1 µM in assay [1] was determined as 37%; in the assay on MDA-MB-468 [2] it was 8%; in the assay on MDA-MB-231 [3], 60%. The half-inhibitory concentration (IC50) in assay [4] stood at 720 nM; in the assay with MDA-MB-468 [5], 447 nM; with MDA-MB-231 [6] it was 854 nM; in the assay with K562 it was 576 nM. The outcome with Escherichia coli, with Pseudomonas aeruginosa and in the assay on Staphylococcus aureus was inactive.
For `Cc1c(Cl)cccc1NC(=O)c1sc2nc3c(cc2c1N)CCCCC3`, the growth at 1 µM in assay [1] was 10%; with MDA-MB-468 [2], 3%; in the assay on MDA-MB-231 [3], 13%. Moreover, the 50% inhibitory concentration (IC50) in [4] stood at 266 nM; in the assay on MDA-MB-468 [5] it was 160 nM; in the assay on MDA-MB-231 [6], 190 nM; in the assay on K562, 210 nM.
Consider `Cc1c(Cl)cccc1NC(=O)c1sc2nc3c(cc2c1N)CCCC3`, for which the values for the growth at 1 µM (in assay [1]; in the assay with MDA-MB-468 [2]; in the assay with MDA-MB-231 [3]) were 3%, 6% and 15%, respectively. The IC50 turned out to be 191 nM in [4], 134 nM in the assay with MDA-MB-468 [5], 221 nM with MDA-MB-231 [6] and 153 nM in the assay with K562. Moreover, the result in the assay on Escherichia coli, with Pseudomonas aeruginosa and with Staphylococcus aureus was inactive.
`Nc1c(C(=O)Nc2ccccc2C(F)(F)F)sc2nc3c(cc12)CCCC3`: the growth at 1 µM in assay [1] was 104%; with MDA-MB-468 [2], 93%; with MDA-MB-231 [3], 128%.
For `Cc1cc(C)c(NC(=O)c2sc3nc4c(cc3c2N)CCCCC4)c(C)c1`, in that order: 99%, 89% and 98%.
`Nc1c(C(=O)Nc2cccc(Cl)c2)sc2nc3c(cc12)CCCCC3`: the growth at 1 µM in [1] was 86%; with MDA-MB-468 [2] it was 39%; in the assay on MDA-MB-231 [3], 95%.
In the case of `Cc1c(Br)cccc1NC(=O)c1sc2nc3c(cc2c1N)CCCCC3`, the growth at 1 µM in assay [1] stood at 8%; in the assay on MDA-MB-468 [2], 3%; with MDA-MB-231 [3], 12%. The half-inhibitory concentration (IC50) in [4] came to 442 nM; in the assay with MDA-MB-468 [5], 199 nM; in the assay with MDA-MB-231 [6] it was 198 nM; with K562, 223 nM.
On to `Nc1c(C(=O)Nc2ccc3ccccc3c2)sc2nc3c(cc12)CCCCC3`, for which the growth at 1 µM in assay [1] was determined as 103%; in the assay with MDA-MB-468 [2] it was 97%; with MDA-MB-231 [3], 118%.
As for `Nc1c(C(=O)Nc2ccccc2F)sc2nc3c(cc12)CCCCCC3`, the growth at 1 µM in [1] turned out to be 5%; in the assay on MDA-MB-468 [2] it was 5%; in the assay with MDA-MB-231 [3], 24%. Besides, the half-inhibitory concentration (IC50) in assay [4] turned out to be 599 nM; in the assay on MDA-MB-468 [5], 372 nM; in the assay on MDA-MB-231 [6], 587 nM; with K562 it was 562 nM.
Turning to `Cc1cccc(NC(=O)c2sc3nc4c(cc3c2N)CCCCCC4)c1C`, the growth at 1 µM in [1] stood at 6%; in the assay on MDA-MB-468 [2], 4%; with MDA-MB-231 [3], 3%. For the same molecule, the IC50 was found to be 183 nM in assay [4], 83 nM in the assay with MDA-MB-468 [5], 170 nM with MDA-MB-231 [6] and 83 nM in the assay with K562.
On to `Nc1c(C(=O)Nc2ccccc2)sc2nc3c(c(-c4ccco4)c12)CCCCC3`, for which the growth at 1 µM in assay [1] was 65%; with MDA-MB-468 [2], 71%; in the assay on MDA-MB-231 [3], 89%.
For `Cc1ccc2cc3c(N)c(C(=O)Nc4ccccc4[N+](=O)[O-])sc3nc2c1`, in that order: 102%, 101% and 90%.
Consider `Cc1ccc(C)c(NC(=O)c2cc3cc4cc(C)ccc4nc3s2)c1`, for which the growth at 1 µM in [1] was 98%; in the assay on MDA-MB-468 [2], 77%; in the assay on MDA-MB-231 [3], 103%.
